What is called AC50 is the midpoint of the concentration-response curve, whichever way the signal moves.

From ChEMBL document CHEMBL1201862, “PubChem BioAssay data set” (2004) come the findings set out here.

Among the targets are Cytochrome P450 3A4 (Homo sapiens, UniProt P08684); Cytochrome P450 2C9 (Homo sapiens, UniProt P11712); Cytochrome P450 2D6 (Homo sapiens, UniProt P10635).
Assay [1] addresses T1, Calpain-2 catalytic subunit (Sus scrofa, UniProt P43367).
T1 sequence (P43367 whole entry): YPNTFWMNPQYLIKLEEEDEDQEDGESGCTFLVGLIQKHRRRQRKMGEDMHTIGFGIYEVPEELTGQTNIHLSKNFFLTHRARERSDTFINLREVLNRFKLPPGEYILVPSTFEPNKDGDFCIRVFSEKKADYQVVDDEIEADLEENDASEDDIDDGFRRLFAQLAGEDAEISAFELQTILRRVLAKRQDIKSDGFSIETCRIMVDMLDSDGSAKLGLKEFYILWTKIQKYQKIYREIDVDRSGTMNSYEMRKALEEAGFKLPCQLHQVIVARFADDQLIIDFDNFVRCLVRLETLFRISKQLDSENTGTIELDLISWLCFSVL
As to the kind of experiment: m-calpain protease blockers, concentration series – biochemical, fluorogenic peptide substrate, dose response (AID 1420). The assay is classed as functional.

The next assay addresses T2, Leucine aminopeptidase (Plasmodium falciparum 3D7, UniProt Q8IL11).
T2 sequence (Q8IL11 whole entry): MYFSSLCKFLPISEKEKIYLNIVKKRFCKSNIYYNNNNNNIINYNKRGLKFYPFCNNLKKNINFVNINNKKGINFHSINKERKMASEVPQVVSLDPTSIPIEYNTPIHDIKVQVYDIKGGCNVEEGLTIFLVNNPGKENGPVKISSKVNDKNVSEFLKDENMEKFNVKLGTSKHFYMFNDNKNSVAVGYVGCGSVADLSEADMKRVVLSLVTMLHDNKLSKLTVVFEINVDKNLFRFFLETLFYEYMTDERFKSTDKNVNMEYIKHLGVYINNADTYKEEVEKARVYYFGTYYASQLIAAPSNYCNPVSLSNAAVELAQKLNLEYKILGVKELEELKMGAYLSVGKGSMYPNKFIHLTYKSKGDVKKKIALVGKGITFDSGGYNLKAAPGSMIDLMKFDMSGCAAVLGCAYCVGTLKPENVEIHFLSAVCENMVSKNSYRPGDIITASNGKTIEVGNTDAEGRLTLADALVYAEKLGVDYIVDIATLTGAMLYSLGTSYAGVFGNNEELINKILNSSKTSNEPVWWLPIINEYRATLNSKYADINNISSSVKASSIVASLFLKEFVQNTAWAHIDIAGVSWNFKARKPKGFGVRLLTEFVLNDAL
Briefly: P. falciparum M17LAP inhibitors, primary screen, biochemical, fluorogenic H-Leu-NHMec substrate, 1536-well (AID 1619). The assay is classed as functional.

The nature of assay [2]: alpha-synuclein stem-loop luciferase translation blockers – H4 neuroglioma cells, luminescence, confirmation (AID 1988). The assay is classed as functional, cell-based.
Assay [3] in a line: Luminescence Cell-Based Dose Response HTS to Identify Inhibitors of 5'UTR Stem-Loop Driven Prion Protein mRNA Translation in H4 Neuroglioblastoma Cells. [Related pubchem assays: 1827 (Project Summary), 1813 (Primary HTS)]. The assay is classed as functional.
A short description of assay [4]: luciferase reporter signal suppression in cells – H4 neuroglioma cells, luminescence, dose response (AID 1990). The assay is classed as functional, cell-based. (A reporter such as luciferase makes a cellular process visible.)
In another assay the target is Paired box protein Pax-8 (Homo sapiens, UniProt Q06710). Briefly: PAX8 transcriptional activity inhibition in RMG-I – RMG-I cells, luciferase, cherry-pick, dose response (AID 687027).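 Also: luciferase reporter driven by Pax8 target thyroperoxidase promoter measured by SteadyGlo luminescence.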 The assay is classed as functional, cell-based.
The target in a further assay is Cytochrome P450 2C19 (Homo sapiens, UniProt P33261). Briefly: Cytochrome panel assay with activity outcomes. Panel member name: p450-cyp2c19 Compounds with AC50 equal or less than 10 uM are considered active. The assay is classed as functional. To be noted: read-out: AC50.
The target in assay [5] is T3, Corticotropin-releasing factor receptor 2/Corticotropin-releasing factor-binding protein (Homo sapiens, UniProt P24387+Q13324).
T3 sequence (Q13324 whole entry): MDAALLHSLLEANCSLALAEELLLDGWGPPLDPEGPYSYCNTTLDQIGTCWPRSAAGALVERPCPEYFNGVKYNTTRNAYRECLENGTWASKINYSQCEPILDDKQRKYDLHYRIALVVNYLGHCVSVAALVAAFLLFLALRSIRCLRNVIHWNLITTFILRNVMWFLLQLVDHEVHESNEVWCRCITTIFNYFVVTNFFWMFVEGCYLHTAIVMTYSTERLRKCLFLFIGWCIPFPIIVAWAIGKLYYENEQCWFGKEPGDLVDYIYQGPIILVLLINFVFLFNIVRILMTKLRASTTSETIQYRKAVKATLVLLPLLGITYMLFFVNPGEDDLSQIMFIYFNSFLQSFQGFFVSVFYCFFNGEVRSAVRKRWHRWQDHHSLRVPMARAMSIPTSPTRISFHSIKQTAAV
T3 sequence (P24387 whole entry): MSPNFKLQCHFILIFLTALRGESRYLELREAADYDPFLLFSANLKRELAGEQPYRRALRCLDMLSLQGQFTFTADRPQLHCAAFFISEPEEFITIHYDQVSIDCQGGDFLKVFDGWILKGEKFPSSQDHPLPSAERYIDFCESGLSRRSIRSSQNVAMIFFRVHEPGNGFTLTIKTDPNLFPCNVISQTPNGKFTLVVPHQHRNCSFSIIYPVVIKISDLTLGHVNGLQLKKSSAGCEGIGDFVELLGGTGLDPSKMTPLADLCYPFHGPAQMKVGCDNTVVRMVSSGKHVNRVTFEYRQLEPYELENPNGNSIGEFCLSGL
Briefly: activators of CRF receptor 2 with binding protein – uHTS hits, confirmation (AID 602473). The assay is classed as functional. To be noted: read-out: EC50_Mean.

Assay [6] concerns the target T3, Corticotropin-releasing factor receptor 2/Corticotropin-releasing factor-binding protein. Briefly: Dose Response confirmation of uHTS hits for small molecule antagonists of the CRF-binding protein and CRF-R2 receptor complex. The assay is classed as functional. To be noted: read-out: IC50_Mean.
Assay [7] in a line: Luminescence Cell-Based Dose Confirmation HTS to Identify Activators of 5'UTR Stem-Loop Driven Alpha-Synuclein mRNA Translation in H4 Neuroglioblastoma Cells. [Related pubchem assays: 1829 (Project Summary), 1814 (Primary HTS)]. The assay is classed as functional.
Assay [8] can be described thus: Luminescence Cell-Based Dose Response HTS to Identify Activators of Luciferase Translation or Activity in H4 […] Cells. [Related pubchem assays: 1829 (Project Summary), 1814 (Primary HTS)]. The assay is classed as functional.
For another assay, the system named is H4. As to the kind of experiment: Luminescence Cell-Based Dose Response HTS to Identify Activators of 5'UTR Stem-Loop Driven Prion Protein mRNA Translation in H4 Neuroglioblastoma Cells. [Related pubchem assays: 1829 (Project Summary), 1814 (Primary HTS)]. To be noted: Homo sapiens. The assay is classed as functional.

Active and inactive are the calls of the source.

Cytochrome P450 2C19, sequence (P33261 whole entry): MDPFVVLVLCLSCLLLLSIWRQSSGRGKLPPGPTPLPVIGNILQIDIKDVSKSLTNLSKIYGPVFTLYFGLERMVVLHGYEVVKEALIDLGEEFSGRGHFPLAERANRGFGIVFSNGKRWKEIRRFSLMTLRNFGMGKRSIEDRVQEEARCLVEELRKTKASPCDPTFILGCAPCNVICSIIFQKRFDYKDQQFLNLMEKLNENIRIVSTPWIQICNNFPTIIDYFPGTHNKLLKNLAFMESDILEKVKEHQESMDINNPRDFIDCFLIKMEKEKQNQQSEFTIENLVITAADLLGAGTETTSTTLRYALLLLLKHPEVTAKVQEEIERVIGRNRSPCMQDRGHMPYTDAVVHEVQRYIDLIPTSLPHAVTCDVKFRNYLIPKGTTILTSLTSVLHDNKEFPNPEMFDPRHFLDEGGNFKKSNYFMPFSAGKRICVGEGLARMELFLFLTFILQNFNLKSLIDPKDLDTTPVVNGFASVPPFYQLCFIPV
Cytochrome P450 2C9, sequence (P11712 whole entry): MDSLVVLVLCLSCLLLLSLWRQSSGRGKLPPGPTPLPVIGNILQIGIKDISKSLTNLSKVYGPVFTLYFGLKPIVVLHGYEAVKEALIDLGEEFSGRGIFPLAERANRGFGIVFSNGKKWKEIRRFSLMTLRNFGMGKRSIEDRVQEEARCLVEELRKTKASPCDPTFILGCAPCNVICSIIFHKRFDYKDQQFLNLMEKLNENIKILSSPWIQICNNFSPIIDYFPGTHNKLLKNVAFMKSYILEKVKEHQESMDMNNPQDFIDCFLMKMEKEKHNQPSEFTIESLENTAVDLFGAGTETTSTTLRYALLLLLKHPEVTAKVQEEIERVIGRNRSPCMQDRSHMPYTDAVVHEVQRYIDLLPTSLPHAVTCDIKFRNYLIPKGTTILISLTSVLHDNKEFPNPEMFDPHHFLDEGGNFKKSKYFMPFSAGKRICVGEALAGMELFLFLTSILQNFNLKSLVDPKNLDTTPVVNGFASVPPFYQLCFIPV
Paired box protein Pax-8, sequence (Q06710 whole entry): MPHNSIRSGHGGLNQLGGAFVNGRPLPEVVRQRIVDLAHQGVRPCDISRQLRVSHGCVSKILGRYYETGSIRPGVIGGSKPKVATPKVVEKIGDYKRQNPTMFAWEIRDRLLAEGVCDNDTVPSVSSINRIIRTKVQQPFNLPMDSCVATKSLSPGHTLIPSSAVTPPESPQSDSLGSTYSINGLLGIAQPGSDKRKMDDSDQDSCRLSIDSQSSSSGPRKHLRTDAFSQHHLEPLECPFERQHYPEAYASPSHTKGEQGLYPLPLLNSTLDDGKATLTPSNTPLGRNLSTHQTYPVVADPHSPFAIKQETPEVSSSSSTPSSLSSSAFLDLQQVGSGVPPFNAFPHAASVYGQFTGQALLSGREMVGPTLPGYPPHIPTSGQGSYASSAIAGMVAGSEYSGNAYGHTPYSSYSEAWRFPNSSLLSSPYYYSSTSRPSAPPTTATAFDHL
Cytochrome P450 3A4, sequence (P08684 whole entry): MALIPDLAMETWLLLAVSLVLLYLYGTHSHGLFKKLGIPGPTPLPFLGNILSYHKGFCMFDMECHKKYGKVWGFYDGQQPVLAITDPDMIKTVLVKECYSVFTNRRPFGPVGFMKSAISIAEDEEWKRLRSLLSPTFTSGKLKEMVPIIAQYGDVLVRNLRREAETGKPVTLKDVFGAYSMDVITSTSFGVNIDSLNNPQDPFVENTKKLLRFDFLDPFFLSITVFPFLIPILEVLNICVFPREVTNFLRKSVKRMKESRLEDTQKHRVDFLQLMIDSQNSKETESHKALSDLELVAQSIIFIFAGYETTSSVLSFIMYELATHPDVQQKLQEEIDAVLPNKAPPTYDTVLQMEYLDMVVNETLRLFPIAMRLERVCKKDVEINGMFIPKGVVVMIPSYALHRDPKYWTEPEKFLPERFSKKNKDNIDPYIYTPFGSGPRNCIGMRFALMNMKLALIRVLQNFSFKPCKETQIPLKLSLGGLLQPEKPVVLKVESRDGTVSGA
Cytochrome P450 2D6, sequence (P10635 whole entry): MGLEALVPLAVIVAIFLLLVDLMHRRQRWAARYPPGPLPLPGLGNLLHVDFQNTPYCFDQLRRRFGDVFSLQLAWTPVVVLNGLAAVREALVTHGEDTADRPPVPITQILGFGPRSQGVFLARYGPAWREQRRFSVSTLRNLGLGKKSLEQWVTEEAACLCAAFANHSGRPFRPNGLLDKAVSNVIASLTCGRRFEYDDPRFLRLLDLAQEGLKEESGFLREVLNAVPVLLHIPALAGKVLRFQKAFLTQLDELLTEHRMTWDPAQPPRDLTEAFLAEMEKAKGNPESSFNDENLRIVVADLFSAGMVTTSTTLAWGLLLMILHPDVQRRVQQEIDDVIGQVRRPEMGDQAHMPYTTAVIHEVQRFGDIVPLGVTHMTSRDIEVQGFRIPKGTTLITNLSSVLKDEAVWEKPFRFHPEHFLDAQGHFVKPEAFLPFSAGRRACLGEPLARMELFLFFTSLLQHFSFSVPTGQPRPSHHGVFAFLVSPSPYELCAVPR

In the case of `Cc1ccc(CNC(=O)CCCCCNc2nc(S)nc3ccccc23)cc1`, the IC50 in assay [1] is 24.8 µM (not active).

For `O=C(CCn1c(=O)[nH]c2ccsc2c1=O)NCc1ccc(F)cc1`, the IC50 in assay [1] is < 0.4 µM (not active).

Turning to `Cc1cc(NS(=O)(=O)c2ccc(NC(=O)CN3C(=O)c4ccccc4C3=O)cc2)nc(C)n1`, on Leucine aminopeptidase, the IC50 was 64.4 µM (active).

`COC(=O)c1nn(-c2ccccc2)c(-c2ccccc2)c1C(=O)c1ccccc1`: the EC50 in assay [2], in assay [3] and in assay [4] was > 120 µM (not active) in each case. The AC50 at Cytochrome P450 3A4 is 14.1 µM (inconclusive); at Cytochrome P450 2C9, 15.8 µM (inconclusive).

Regarding `O=C(OCC(=O)N1CCN(C(=O)c2ccco2)CC1)c1cccc(S(=O)(=O)N2CCc3ccccc32)c1`, the AC50 on Paired box protein Pax-8 is 1.38 µM (active).

For the compound `O=C1c2ccc3c4c(ccc(c24)C(=O)N1c1ccc2ccccc2c1)CC3`, the EC50 is 119 µM (active) in assay [2], 36.6 µM (active) in assay [3] and 11.6 µM (active) in assay [4]. Moreover, the AC50 was 3.98 µM (inconclusive) on Cytochrome P450 2C9 and 2.24 µM (inconclusive) on Cytochrome P450 2C19.

`COC(=O)C1CC(Cl)CN1c1ncc(C(F)(F)F)cc1Cl` (stereo not given): the EC50 in assay [5] was > 53 µM (inactive). In addition, the IC50 in [6] is > 47.1 µM (inactive).

As to `CCCOC(=O)Nc1cc(OC)ccc1[N+](=O)[O-]`, the IC50 in assay [1] is listed as 8.71 µM (not active).

With `Cc1ccc(O)c(-c2cc(C(F)(F)C(F)F)nc(-c3ccccc3)n2)c1`, the figures for the AC50 at Cytochrome P450 3A4, at Cytochrome P450 2C9 and at Cytochrome P450 2C19 were 8.91 µM (inconclusive), 7.08 µM (inconclusive) and 14.1 µM (inconclusive), respectively.

`COc1cccc(CNc2nn[nH]n2)c1OC`: the IC50 at Leucine aminopeptidase is 67.2 µM (active).

Consider `Cc1ccc(NC(=O)CSC2=C(C#N)C(c3ccco3)CC(=O)N2)cc1` (stereo not given), for which the EC50 in [7] is 0.908 µM (active); in [5], > 53 µM (inactive); in [8], 12.4 µM (active); in the assay with H4 it was 16.1 µM (active). Further, in [6], the IC50 was > 47.1 µM (inactive).

`CC1CCCCN1C(=O)CSc1nc(O)cc(-c2ccccc2)n1` (stereo not given): the IC50 on Leucine aminopeptidase is 63.5 µM (active).

With `O=C(Nc1cccc2ncccc12)c1ccc(-c2ccc(Br)cc2)o1`, the AC50 is 12.6 µM (inconclusive) at Cytochrome P450 2D6 and 0.282 µM (inconclusive) at Cytochrome P450 2C9.

Consider `Cc1cccc2cc(C#N)c(N3CCN(C)CC3)nc12`, for which the EC50 in assay [5] was > 53 µM (inactive). Besides, the IC50 in assay [6] is > 47.1 µM (inactive).

Take `OC(CNCc1ccc(Cl)cc1)(c1ccccc1)c1ccc(F)cc1` (stereo not given): the IC50 in assay [1] is reported as 12.1 µM (not active).

Take `Cn1cc(C(=O)c2ccccc2)c2ccccc21`: in assay [5], the EC50 was > 53 µM (inactive). Moreover, in [6], the IC50 was > 47.1 µM (inactive).

For the compound `CCOC(=O)c1cnn(CCOC(=O)c2cccc(F)c2)c1NC(=O)c1cccc(F)c1`, on Paired box protein Pax-8, the AC50 is 20 µM (active).

For the compound `CCOCCCNC(=O)C1CCC(CNS(=O)(=O)c2ccc(Cl)cc2)CC1` (stereo not given), the IC50 in assay [1] was > 50 µM (not active).

Regarding `Cc1ccc(NC(=O)/C(=C\c2cccnc2)NC(=O)c2ccco2)cc1`, the AC50 at Cytochrome P450 2C9 was 20 µM (inconclusive); at Cytochrome P450 2C19 it was 35.5 µM (inconclusive).

As to `Cc1ccc(Sc2c(C=O)c3ccccc3n2C)cc1`, in assay [5], the EC50 was > 53 µM (inactive). Moreover, the IC50 in assay [6] was > 47.1 µM (inactive).

For the compound `O=C1C2CCCCC2C(=O)N1c1ccc(NC2CCCCC2)c([N+](=O)[O-])c1` (stereo not given), the IC50 in assay [1] is 4.65 µM (active).

As for `CCOc1ccc(C2C(C(=O)Nc3ccccc3)=C(C)N=c3s/c(=C/c4cccc(OCC(=O)O)c4)c(=O)n32)cc1` (stereo not given), on Leucine aminopeptidase, the IC50 is 5.95 µM (active).

As to `CC(C)(C)n1nc2c(c1NC(=O)Cc1ccccc1)CS(=O)(=O)C2`, in [5], the EC50 is > 53 µM (inactive). In addition, in assay [6], the IC50 is > 47.1 µM (inactive).

As to `Cc1ccc(-c2nc(N)sc2-c2ccc(C)cc2)cc1`, the IC50 in [1] was 3.19 µM (not active).
